Results from US20140378380A1, “USE OF UNACYLATED GHRELIN, FRAGMENTS AND ANALOGS THEREOF AS ANTIOXIDANT” (Alizé Pharma SAS, priority 2013, published 2014).
Ends that are not written are not given here. * marks the point of attachment. Octanoyl = CCCCCCCC(=O)*

Experiments:
primary SCs = assay: Primary SCs from normo-perfused muscles subjected to in vitro ischemia; assay type: cell-based, mice
Method: (§1) SCs were isolated from gastrocnemius muscles of C57BL/6J wild type mice subjected to ischemia or C57BL/6J mice lacking the GHSR1a and ghrelin genes (10 mice, kind gift of Professor M. Tschöp)^39. To obtain SCs, muscle samples were subjected to enzymatic digestion as described^45. In selected experiments, SCs were recovered from normo-perfused muscles and subjected to in-vitro ischemia in presence of saline, AG (1 μmol/L) or UAG (1 μmol/L). In-vitro ischemia was induced by incubating cells in DMEM+2% FCS at 5% CO2/95% N2 humidified atmosphere, yielding 1% O2 concentrations for 24 h^18. The in-vitro ischemia was also performed in the presence of SB202190 (1 μmol/L).
(§2) SC cell-cycle progression was evaluated by evaluating the percentage of PCNA-positive cells or by FACS analysis as previously described^46. The percentage of cells in each cell cycle phase was determined by ModFit LT software (Verity Software House. Inc, topsham, ME, USA). Celss proliferation was also assayed by evaluating the percentage of PCNA-positive cells by FACS analysis.
(§3) Cells were lysed and protein detection was obtained as previously described^47. Cells were lysed (50 mmol/L Tris HCl [pH 8.3], 1% Triton X-100, 10 mmol/L PMSF, 100 U/ml aprotinin, 10 μmol/L leupeptin) and protein concentrations were obtained as previously described^47. […] Densitometric analysis was used to calculate the differences in the fold induction of protein levels and normalized to tubulin, a actin or p38MAPK content. Values are reported as relative amount
(§4) Intracellular ROS production was evaluated using DCF-DA (5-(and-6)-carboxy-2′,7′-dichlorofluorescein diacetate, […] final concentration) (Molecular Probe, Invitrogen) assay as previously described^23. The formation of TBARS was determined in muscles using the OXI-TEK kit (ZeptoMetrix Corp.) and a luminescence spectrometer (Bio-Rad Laboratories, Hercules, Calif.) with excitation set at 530 nm, emission at 550 nm to measure in-vivo oxidative stress levels^33.
(§5) Total RNA was isolated using TRIzol reagent (Invitrogen) from SCs recovered from muscles of treated animals or from SCs subjected to in-vitro ischemia. miR-221/222 expression was evaluated by qRT-PCR as previously described^48. Loss-of-function experiments were performed in SCs transfected for 48 h with anti-miRNA negative control, anti-miR-221/222 antagonists (Applied Biosystem, Foxter Cyto CA, USA), according to the manufacturer's instructions^48.
To obtain SOD-2 inactivation, SCs were transiently transfected with siRNA for SOD-2 or with duplex siRNAs (Qiagen, Valencia, Calif., USA) as previously described^44. Transfection was performed according to the manufacturer's instructions. Whole cell extracts were processed 48 h after transfection. Cell viability was evaluated at the end of each experiment. […]

[1] = U.S. Pat. Nos. 8,222,217 and 8,318,664; cited from earlier work
SCs from double KO mice = SCs from double KO mice (lacking GHSR1a and ghrelin genes) subjected to in vitro ischemia; assay type: cell-based; settings: for protection of SCs from ROS generation: DCF-DA
Method: as §1, §2, §3, §4

C57BL/6J mice [2] = assay: Murine hind-limb ischemia model (foot damage score, histology, IF, TBARS); assay type: in vivo; settings: for capillary density, ischemic vs contralateral control muscle of the same animals: ischemic vs normo-perfused muscle; for protection against ischemia-induced damage (in vivo effects): overall conclusion; for foot damage (functional score): unilateral hind-limb ischemia, i.p. daily from day 0 to day 21, vs saline
Method: (§6) Male C57BL/6J mice (Charles River Lab., Wilmington, Mass., USA) were anesthetized and unilateral hind limb ischemia was induced as described^42. The normo-perfused contralateral limb of each mouse was used as an internal control. After hind-limb ischemia, animals (18 mice per group) were treated by intra-peritoneal injection daily from 0 to day 21 with either saline, AG ([…]) or UAG ([…]). In selected experiments, mice received intramuscular injections of pre-miR oligonucleotides (5 mice/group). To induce toxic damage, 100 μl of 1% barium chloride (BaCl2, Sigma Aldrich) was injected unilaterally into the hind limb (9 mice). Mice were treated according to European Guidelines and policies as approved by the University of Turin Ethical Committee.
Semiquantitative estimation (by repeated measures analyzed with ANOVA and Newman-Keuls Multiple Comparison test) of foot damage was performed serially using the following classification: 3=dragging of foot (foot necrosis), 2=no dragging but no plantar flexion (foot damage), 1=plantar flexion but no toe flexion (toe damage), and 0=flexing the toes to resist gentle traction on the tail (no damage)^43.
(§7) Gastrocnemius muscle sections from ischemic or normo-perfused limbs were stained with hematoxylin and eosin for histological analysis. The proportion of fibers with central nuclei (regenerating fibers) was measured by MetaMorph software (Life Sciences Research Imaging Systems) in the injured area and the cross-sectional areas of the fibers in the injured and non-injured areas. For IF analysis, muscle sections were processed as described previously^44. The number of cells expressing the indicated markers or CD31 positive vessels was evaluated as previously described^34.
as §4

[3] = tested on: C2C12 mouse muscular cell line; assay: ROS production (DCF-DA) in C2C12 cells subjected to oxidative stress; assay type: cell-based; settings: for protective effect on C2C12 cells against oxidative stress: oxidative stress by hypoxia, AGEs, hyperglycemia or H2O2, 1 μmol/L; for retention of the functions of UAG: results provided herein
Method: Kinetic analysis of ROS production was evaluated by using DCF-DA (5-(and-6)-carboxy-2′,7′-dichlorofluorescein diacetate, 0.5 μmol/L final concentration) (Molecular Probe, Invitrogen) assay. C2C12 cells were cultured with 400 μg/ml Advanced Glycated End-product (AGE) or 25 mM glucose (high glucose HG) for 48 h, H2O2 (100 μM) for 2 h. In parallel experiments C2C12 cells were subjected to hypoxia (DMEM+2% FCS in a 5% CO2-95% N2 humidified atmosphere, yielding to 1% O2 concentrations for 24 h). UAG (1 μmol/L) AZP 531 (1 μmol/L) or AZP-502 (1 μmol/L) was added where indicated.

healthy volunteers = settings: administered concomitantly in healthy volunteers; cited from earlier work
GH secretion = settings: cited from earlier work
GHSR-1a = GHSR-1a (Homo sapiens, UniProt Q92847); settings: cited from earlier work
Chain of GHSR-1a (Q92847 whole entry): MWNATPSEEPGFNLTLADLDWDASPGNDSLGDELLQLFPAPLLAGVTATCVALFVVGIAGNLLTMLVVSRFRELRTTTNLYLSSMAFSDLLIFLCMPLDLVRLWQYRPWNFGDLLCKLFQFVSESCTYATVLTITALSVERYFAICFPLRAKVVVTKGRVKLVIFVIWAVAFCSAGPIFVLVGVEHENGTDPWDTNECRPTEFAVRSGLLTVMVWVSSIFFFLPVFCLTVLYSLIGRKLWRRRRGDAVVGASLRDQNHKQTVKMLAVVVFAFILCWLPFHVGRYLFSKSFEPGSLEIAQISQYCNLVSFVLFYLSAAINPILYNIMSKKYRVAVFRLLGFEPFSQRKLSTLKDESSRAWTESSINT

satellite cells (SCs) = assay: SCs recovered from ischemic muscles of treated mice (count, Western blot, DCF-DA, qRT-PCR); assay type: in vivo
Method: as §6, §1, §3, §4, §5

[4] = tested on: endothelial progenitor cells (EPCs); settings: cited from earlier work
C57BL/6J mice [5] = assay: Toxic damage induced by 1% barium chloride (BaCl2) in gastrocnemius muscle; assay type: in vivo; settings: 1% BaCl2 injected into hind limb
Method: as §6, §7

[6] = SB202190 1 μmol/L added, in vitro ischemia
[7] = SOD-2 silenced using siRNA, in vitro ischemia
[8] = in vitro ischemia 1% O2 24 h, 1 μmol/L

Oc1ccc(-c2nc(-c3ccncc3)c(-c3ccc(F)cc3)[nH]2)cc1 [SB202190, reference compound]
MyoD and myogenin expression in SCs exposed to UAG (primary SCs; [6]): prevented MyoD and myogenin expression | cell-cycle entry of SCs exposed to UAG (primary SCs; [6]): blocked cell-cycle entry

Glu-His-Gln-Arg (EHQR; listed as Homo sapiens) [UAG (8-11)]
activity on glucose, insulin and lipid metabolisms relative to UAG full length [1]: retain the activity of UAG full length

AG: 28 amino acid peptide characterized by the presence of an n-octanoyl modification on the Ser3 residue (GSS(Octanoyl)FLSPEHQRVQQRKESKKPPAKLQPR; UniProt Q9UBU3 24-51, looked up) [reference compound]
protection of SCs from ROS generation (SCs from double KO mice): unlike AG | concentration of TBARS in ischemic muscles (C57BL/6J mice [2]; gastrocnemius muscle): Significant increases | capillary density, ischemic vs contralateral control muscle of the same animals (C57BL/6J mice [2]): significantly lower capillary density | protection against ischemia-induced damage (in vivo effects) (C57BL/6J mice [2]): failure to detect in vivo effects | foot damage (functional score) (C57BL/6J mice [2]): significantly higher

Ser-Pro-Glu-His-Gln-Arg-Val-Gln (cycl) (SPEHQRVQ; cyclic; (1)..(8) Cyclic; listed as Homo sapiens) [UAG(6-13)cyclic]
protective effect on C2C12 cells against oxidative stress [3]: have a protective effect | retention of the functions of UAG [3]: retain the functions of UAG

EHQRVQ [UAG (8-13)]
activity on glucose, insulin and lipid metabolisms relative to UAG full length [1]: retain the activity of UAG full length

His-Gln-Arg (HQR; listed as Homo sapiens) [UAG (9-11)]
activity on glucose, insulin and lipid metabolisms relative to UAG full length [1]: retain the activity of UAG full length

SPEHQRVQ [UAG (6-13)]
activity on glucose, insulin and lipid metabolisms relative to UAG full length [1]: retain the activity of UAG full length | protective effect on C2C12 cells against oxidative stress [3]: have a protective effect | retention of the functions of UAG [3]: retain the functions of UAG

His-Gln-Arg-Val (HQRV; listed as Homo sapiens) [UAG (9-12)]
activity on glucose, insulin and lipid metabolisms relative to UAG full length [1]: retain the activity of UAG full length

Gly-Ser-Ser-Phe-Leu-Ser-Pro-Glu-His-Gln-Arg-Val-Gln-Gln-Arg-Lys-Glu-Ser-Lys-Lys-Pro-Pro-Ala-Lys-Leu-Gln-Pro-Arg (GSSFLSPEHQRVQQRKESKKPPAKLQPR; listed as Homo sapiens) [UAG]
hyperglycemic effects of ghrelin (healthy volunteers): prevent the hyperglycemic effects of ghrelin | effect on GH secretion (GH secretion): no physiological effect on GH secretion | protective effect on C2C12 cells against oxidative stress [3]: have a protective effect | SC cell-cycle progression (SCs from double KO mice): only UAG promoted SC cell-cycle progression | SOD-2 expression (SCs from double KO mice): induced SOD-2 expression | p-p38/MAPK, Pax-7, MyoD, Myf5 and myogenin expression (SCs from double KO mice): induced | protection of SCs from ROS generation (SCs from double KO mice): protected SCs from ROS generation | binding to GHSR-1a (GHSR-1a): fails to bind | cell-cycle entry or expression of SOD-2, Pax-7, MyoD, or myogenin (primary SCs; SCs transfected with anti-miR-221/222 antago-miRs (data not shown)): no longer had any effect | p-p38/MAPK levels (primary SCs; SCs transfected with anti-miR-221/222 antago-miRs, UAG (data not shown)): p-p38/MAPK levels were reduced | UAG-induced miR-221/222 expression (primary SCs; SOD-2 knock-down, in vitro ischemia): prevents UAG-induced miR-221/222 expression | cell-cycle progression (primary SCs; [7]): did not undergo cell-cycle progression | p38/MAPK phosphorylation (primary SCs; [7]): did not induce p38/MAPK phosphorylation | protection of SCs against ROS generation (primary SCs; [7]): did not protect SCs against ROS generation | expression of Pax-7, MyoD (primary SCs; [8]): induced expression | expression of myogenin (primary SCs; [8]): induced expression | levels of pp38/MAPK (primary SCs; [8]): increased levels | ROS production (primary SCs; in vitro ischemia, DCF-DA): ROS production was decreased | PCNA expression (primary SCs; in vitro ischemia, FACS): increased PCNA expression | number of cells in S phase (primary SCs; in vitro ischemia, FACS): increased | SOD-2 expression (primary SCs; in vitro ischemia, Western blot): SOD-2 expression increased | ROS production in SCs from treated mice (satellite cells (SCs); DCF-DA assay): lower | levels of phospho(p)-p38/MAPK protein in SCs (satellite cells (SCs); SCs from treated mice, Western blot): found to be higher | SOD-2 protein expression in SCs from treated mice (satellite cells (SCs); Western blot): higher | levels of p57kip2 protein in SCs from treated mice (satellite cells (SCs); Western blot): reduced | number of Pax-7/MyoD/Myf5+ SCs isolated and counted ex vivo (satellite cells (SCs); ischemic muscles of treated mice): significantly increased number | expression of miR-221 and miR-222 in SCs recovered from muscles of treated mice (satellite cells (SCs); qRT-PCR, compared to controls): significantly increased | protection of EPCs from oxidative stress (ROS generation) [4]: only UAG protects endothelial progenitor cells (EPCs) from oxidative stress | regeneration of skeletal muscle after BaCl2 (ROS-independent damage) (C57BL/6J mice [5]): regeneration of skeletal muscle was no longer observed | number of Pax-7/MyoD+ cells in ischemic muscles (C57BL/6J mice [2]; day 7): increased number of Pax-7/MyoD+ cells | Pax-7/MyoD+ cells in ischemic muscles (C57BL/6J mice [2]; day 21): scattered Pax-7/MyoD+ cells were still present | number of SOD-2/Pax-7+ cells in ischemic muscle (C57BL/6J mice [2]; double immunostaining, day 7): increased number of SOD-2/Pax-7+ cells | number of CD68-positive inflammatory cells (C57BL/6J mice [2]; ischemic muscle): reduced number of CD68-positive inflammatory cells | number of regenerating myofibers in gastrocnemius muscles (C57BL/6J mice [2]; ischemic muscle): increased number of regenerating myofibers | number of myogenin-positive cells in ischemic muscles (C57BL/6J mice [2]; ischemic muscles): increased number of myogenin-positive cells | number of functional vessels in ischemic muscles (C57BL/6J mice [2]; ischemic muscles, compared to the other groups): larger number of functional vessels | capillary density, ischemic vs contralateral control muscle of the same animals (C57BL/6J mice [2]): no such differences were observed | protection against ischemia-induced damage (in vivo effects) (C57BL/6J mice [2]): appears to protect against ischemia-induced damage | foot damage (functional score) (C57BL/6J mice [2]): damage was significantly higher in saline- and AG-treated groups than in the UAG-treated group

Glu-His-Gln-Arg-Val (EHQRV; listed as Homo sapiens) [UAG (8-12)]
activity on glucose, insulin and lipid metabolisms relative to UAG full length [1]: retain the activity of UAG full length
